Marks after values point to notes of the source that are not given here.
Experiments:
[1] = test system: L. infantum promastigotes; experiment: apoptosis/necrosis profiling, annexin V/PI staining, promastigotes; format: cell-based, Leishmania infantum
Protocol: (§1) To evaluate both apoptosis and necrosis, promastigote forms of L. infantum in the log phase of growth were incubated at several concentrations based on the IC50 values of LQOFG-2 (6.35; 12.7, 25.4, and 50.8 µM) LQOFG-6 (12.2, 24.4, 48.8 and 97.6 µM), and LQOFG-7 (11.65, 23.3, 46.6 and 93.2 µM), and AmB (1.5 and 6 µM) was used as the positive control. The plates were incubated for 24 h at 26 °C ± 1 °C in a B.O.D. incubator. After incubation, the promastigotes were washed three times in cold PBS, resuspended in binding buffer (10-mM HEPES, 140-mM NaCl, and 2.5-mM CaCl2, pH 7.4), and stained using a FITC Annexin V/Dead Cell Apoptosis Kit (BD Biosciences, San Jose, CA, USA) according to the manufacturer’s instructions. The stained cells were diluted and suspended in an Annexin V binding buffer (BD Biosciences, San Jose, CA, USA). Annexin V-FITC/propidium iodide (PI)-stained cells were analyzed using a BD FACSCanto II flow cytometer (BD Biosciences, San Jose, CA, USA). The raw data were analyzed using FlowJo 10.0.7 software (TreeStar Inc., Ashland, OR, USA).

human red blood cells = experiment: red blood cell lysis assay; format: cell-based; conditions: 1 h, 37 °C
Protocol: The hemolytic activities of guanidine compounds were measured using human red blood cells from healthy adults (n = 3) according to methods previously described. Briefly, 80 µL of a 5% erythrocyte/phosphate-buffered saline (PBS) suspension was mixed with 20 µL of LQOFG-2, LQOFG-6, LQOFG-7, (1000 to 7.8 µM), and AmB (100 to 0.78 µM). After incubation at 37 °C for 1 h, 200 µL of PBS (1.5 mM KH2PO4, 8.1 mM Na2HPO4, 136.9 mM NaCl, and 2.6 mM KCl, pH 7.2) was added to stop the hemolysis process, and the samples were centrifuged for 10 min at 1000× g. The supernatants were collected, and the extent of hemolysis was measured spectrophotometrically at 540 nm. The hemolysis percentage was determined as [(Abssam − Abscon)/(Abstot − Abscon) × 100], where Abssam is the absorbance of the sample, Abscon is the absorbance of the blank control (without drugs), and Abstot is the absorbance of total hemolysis (replacing the sample solution with an equal volume of ultrapure water (Direct-Q UV®, Guyancourt, France)).

[2] = in vitro cytotoxicity in PBMC (MTT); format: cell-based, human; conditions: both sexes, human, peripheral blood mononuclear cells (PBMCs), human PBMC, 24 h, MTT
Protocol: (§2) In vitro cytotoxicity was evaluated using peripheral blood mononuclear cells (PBMCs) collected from three healthy volunteers (2 males, mean age 33; and 1 person). PBMCs were separated by density gradient using Ficoll Paque PLUS (GE Healthcare, USA), pelleted by centrifugation (400× g for 40 min), and resuspended in RPMI 1640 medium, then supplemented with 10% fetal bovine serum and 1% antibiotic solution (penicillin 5000 Units/mL + streptomycin 5000 μg/mL). After 24 h of treatment, cell viability was evaluated by the modified colorimetric method based on the tetrazolium dye MTT (3-(4,5-dimethylthiazol-2-yl)-2,5- diphenyltetrazolium bromide). The MTT assay was used for in vitro cytotoxicity as previously described with the following modifications: cells were exposed to serially diluted concentrations of LQOFG-2, LQOFG-6, LQOFG-7 (1000 to 7.8 µM), and AmB (100 to 0.78 µM). The plates were kept at 37 °C for 24 h. MTT (5 mg/mL) was added and incubated for 4 h at 37 °C, after which the plates were centrifuged, the supernatant was discarded, and DMSO was added, leaving the plates under stirring to solubilize the formazan salts. Absorbance was measured at 540 nm using a plate reader (ELx800; Curitiba, PR, Brazil). The mean percentage of viable cells was calculated relative to the untreated control.

[3] = test system: peripheral blood mononuclear cells (PBMCs); experiment: in vitro cytotoxicity in PBMC (MTT); format: cell-based, human; conditions: CC50 PBMC / EC50 axenic amastigotes
Protocol: as §2

[4] = test system: L. infantum axenic amastigotes; experiment: axenic amastigote inhibition assay (MTT); format: cell-based; conditions: Leishmania infantum, 24 h; for EC50: 37 °C, pH 5.5, MTT; for inhibition at 31.2 µM: read-out: inhibition of axenic amastigotes compared to the control (untreated)
[5] = test system: L. infantum promastigotes; experiment: promastigote growth inhibition assay (MTT); format: cell-based; conditions: Leishmania infantum, 72 h, 26 °C
Protocol: The promastigote forms of Leishmania (Leishmania) infantum [IOC/L0579(MHOM/BR/1974/PP75)] were cultured in Schneider’s medium, pH 7.0, supplemented with 20% heat-inactivated fetal bovine serum (FBS), 2% male human urine, 100 U/mL of penicillin, and 100 mg/L of streptomycin, and the parasites were maintained at 26 °C. The procedure to obtain the extracellular axenic amastigote form of L. infantum was based on methods previously described that were modified using a Schneider medium readjusted to pH 5.5 at 37 °C. The culture of promastigote forms in the stationary phase was centrifuged, and the medium of these cells was replaced and differentiated into axenic amastigotes by temperature and medium pH changes. Parasites were maintained in culture for no more than 20 passages.
The promastigote growth inhibition assay was performed as previously described. Promastigotes were harvested during the exponential growth phase. They were incubated in the presence and absence of several concentrations of LQOFG-2, LQOFG-6, LQOFG-7 (500 to 7.8 µM), and AmB (10 to 0.078 µM) as the positive control. The plate was incubated at 26 °C for 72 h in a biological oxygen demand (B.O.D.) incubator using a Schneider’s medium (Schneider’s Insect Medium 24.5 g/L; L-glutamine 1.8 g/L; glucose 2 g/L and sodium bicarbonate 0.4 g/L; Sigma-Aldrich—St. Louis—USA) supplemented. The growth inhibition was evaluated using an MTT assay kit (Amresco, Solon, OH, USA) according to the manufacturer’s protocol. After 4 h of incubation, 10% sodium dodecyl sulfate was added to dissolve the formazan crystals. The absorbance (540 nm) was measured using a plate reader (Biosystems model ELx800; Curitiba, PR, Brazil). […] Three independent experiments we performed in triplicate.

[6] = test system: L. infantum axenic amastigotes; experiment: apoptosis/necrosis profiling, annexin V/PI staining, axenic amastigotes; format: cell-based, Leishmania infantum
Protocol: as §1
To evaluate both apoptosis and necrosis of the amastigote-like forms of L. infantum, the protocol was followed. In each well, amastigotes were treated with the guanidine compounds and controls.

Row | EC50 [4] | IC50 [5] | Compound | % cells, Early Apoptosis (AV+, PI−) ([1]; 0.5× IC50, 24 h) | % cells, Late Apoptosis (AV+, PI+) ([1]; 0.5× IC50, 24 h) | % cells, Necrosis (AV−, PI+) ([1]; 0.5× IC50, 24 h) | % cells, Early Apoptosis (AV+, PI−) ([1]; 1× IC50, 24 h) | % cells, Late Apoptosis (AV+, PI+) ([1]; 1× IC50, 24 h) | % cells, Necrosis (AV−, PI+) ([1]; 1× IC50, 24 h) | % cells, Early Apoptosis (AV+, PI−) ([1]; 2× IC50, 24 h) | % cells, Late Apoptosis (AV+, PI+) ([1]; 2× IC50, 24 h) | % cells, Early Apoptosis (AV+, PI−) ([1]; 4× IC50, 24 h) | % cells, Late Apoptosis (AV+, PI+) ([1]; 4× IC50, 24 h) | HC50, toxicity to red blood cells (human red blood cells) | CC50 at 24 h [2] | SI (CC50/EC50) [3] | inhibition at 31.2 µM [4] | % cells, Early Apoptosis (AV+, PI−) ([6]; 0.5 × EC50, 24 h) | % cells, Late Apoptosis (AV+, PI+) ([6]; 0.5 × EC50, 24 h) | % cells, Early Apoptosis (AV+, PI−) ([6]; 1 × EC50, 24 h) | % cells, Late Apoptosis (AV+, PI+) ([6]; 1 × EC50, 24 h) | further results
1 | 26.1 ± 1.22 µM | 12.7 ± 0.25 µM | O=C(/N=C(/NCc1ccccc1)Nc1ccc(Br)cc1)c1ccccc1 [LQOFG-2, (Z)-N-((benzylamine)((4-bromophenyl)amino)methylene)benzamide] | 0.27± 0.09% | 0.55 ± 0.04% | 1.69 ± 0.28% | 0.12 ± 0.02% | 0.41 ± 0.14% | 2.07 ± 0.23% | 0.35 ± 0.01% | 0.78 ± 0.15% | 0.34 ± 0.09% | 0.63 ± 0.12% | >1000 µM | 313 ± 3.23 µM | 12.00 | 57.7% | 5.68 ± 0.29 ^a % | 31.43 ± 0.03 ^b % | 8.13 ± 0.84 ^d % | 33.23 ± 0.73 ^c % | % cells, Necrosis (AV−, PI+) ([1]; 2× IC50, 24 h): 1.52 ± 0.24%; % cells, Necrosis (AV−, PI+) ([1]; 4× IC50, 24 h): 1.79 ± 0.59%; % cells, Necrosis (AV−, PI+) ([6]; 0.5 × EC50, 24 h): 13.20 ± 1.62%; % cells, Necrosis (AV−, PI+) ([6]; 1 × EC50, 24 h): 11.97 ± 0.66%; % cells, Early Apoptosis (AV+, PI−) ([6]; 2 × EC50, 24 h): 7.68 ± 0.39 ^d %; % cells, Late Apoptosis (AV+, PI+) ([6]; 2 × EC50, 24 h): 56.27 ± 1.51 ^d %; % cells, Necrosis (AV−, PI+) ([6]; 2 × EC50, 24 h): 15.93 ± 1.02%; % cells, Early Apoptosis (AV+, PI−) ([6]; 4 × EC50, 24 h): 7.55 ± 1.18 ^d %; % cells, Late Apoptosis (AV+, PI+) ([6]; 4 × EC50, 24 h): 67.50 ± 2.05 ^d %; % cells, Necrosis (AV−, PI+) ([6]; 4 × EC50, 24 h): 13.80 ± 1.47%
2 | 21.1 ± 1.13 µM | 24.4 ± 0.76 µM | CC(C)(C)c1ccc(N/C(=N\C(=O)c2ccccc2)NCc2ccccc2)cc1 [LQOFG-6, (Z)-N-((benzylamine)((4-(tert-butyl)phenyl)amino)methylene)benzamide] | 0.65 ± 0.19% | 0.18 ± 0.01% | 0.85 ± 0.09% | 0.46 ± 0.13% | 0.20 ± 0.03% | 1.47 ± 0.21% | 0.51 ± 0.08% | 0.32 ± 0.06% | 0.91 ± 0.34% | 0.20 ± 0.03% | >1000 µM | > 1000 µM | >47.4 | 59.9% | 3.62 ± 0.39% | 17.10 ± 0.80% | 4.05 ± 0.22% | 20.00 ± 1.74% | % cells, Necrosis (AV−, PI+) ([6]; 1 × EC50, 24 h): 6.57 ± 1.20%; % cells, Early Apoptosis (AV+, PI−) ([6]; 2 × EC50, 24 h): 5.72 ± 0.20 ^a %; % cells, Late Apoptosis (AV+, PI+) ([6]; 2 × EC50, 24 h): 25.50 ± 0.80%; % cells, Necrosis (AV−, PI+) ([6]; 2 × EC50, 24 h): 7.15 ± 0.21%; % cells, Early Apoptosis (AV+, PI−) ([6]; 4 × EC50, 24 h): 9.06 ± 0.70 ^d %; % cells, Late Apoptosis (AV+, PI+) ([6]; 4 × EC50, 24 h): 45.47 ± 1.30 ^d %; % cells, Necrosis (AV−, PI+) ([6]; 4 × EC50, 24 h): 8.14 ± 0.78%
